Laboratory results reported in US20250325547A1, “ANTI-SARS-COV-2 DRUG” (KAGOSHIMA UNIVERSITY, priority 2021, published 2025).
Read-outs that look alike come from different tables or passages of the source.

Assays:
Assay type in all cases: cell-based
[1] = tested on: SARS-CoV-2 Alpha strain (QK002)
[2] = tested on: SARS-CoV-2 Beta strain (TY8-612)
[3] = tested on: SARS-CoV-2 Gamma strain (TY7-501)
[4] = Alpha strain (QK002), CPE assay in Vero/TMPRSS2
[5] = Beta strain (TY8-612), CPE assay in Vero/TMPRSS2
[6] = Gamma strain (TY7-501), CPE assay in Vero/TMPRSS2

Structure (SMILES): CCN(Cc1cc(Nc2ncnc3ccccc23)cc(Cl)c1O)C1CCCCC1 [Compound 19]
- EC50 [1]: 5.8 µM
- EC50 [2]: 8.6 µM
- EC50 [3]: 4.2 µM

Structure (SMILES): CC(C)N(Cc1cc(Nc2ncnc3ccccc23)cc(Cl)c1O)C(C)C [Compound 15]
- EC50 [1, 4]: 2.7 µM
- EC50 [2, 5]: 6.8 µM
- EC50 [3, 6]: 3.5 µM

Structure (SMILES): CCN(Cc1cc(Nc2ncnc3ccccc23)cc(Cl)c1O)C(C)C [Compound 11]
- EC50 [1, 4]: 3.8 µM
- EC50 [2, 5]: 9.3 µM
- EC50 [3, 6]: 5.4 µM
